Measurements taken from ChEMBL document CHEMBL1201862, “PubChem BioAssay data set” (2004).
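Each compound was tested at five concentrations against cells in 96-well plates for 48 hours. GI50 = concentration required for 50% inhibition of growth.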 Active and inactive are the calls of the source. Rule as the data show it: active = GI50 up to about 1.1 µM and inactive = higher.

What was measured:
Test in all cases: growth of human tumour cells (NCI), 48 h
U-251 = test system: U-251
MCF7 = test system: MCF7
UACC-257 = test system: UACC-257
SK-MEL-28 = test system: SK-MEL-28
OVCAR-8 = test system: OVCAR-8
BT-549 = test system: BT-549
SF-295 = test system: SF-295
NCI/ADR-RES = test system: NCI/ADR-RES
HCT-15 = test system: HCT-15
PC-3 = test system: PC-3
SK-MEL-2 = test system: SK-MEL-2
SF-539 = test system: SF-539
SNB-19 = test system: SNB-19
DLD-1 = test system: DLD-1
DMS-273 = test system: DMS-273
XF498 = test system: XF498
M19-MEL = test system: M19-MEL
LXFL 529 = test system: LXFL 529

Measured: GI50

N#C/N=[N+](\[O-])c1ccc(C(=O)O)cc1
inactive: U-251 19 µM | MCF7 19.2 µM | UACC-257 18 µM | SK-MEL-28 18.5 µM | OVCAR-8 17.6 µM | BT-549 16.4 µM | SF-295 > 100 µM | NCI/ADR-RES 19.3 µM | PC-3 17.1 µM | SK-MEL-2 18.7 µM | SF-539 16.3 µM | SNB-19 16.3 µM
16.2 µM: HCT-15

CC(C)(C)OC(=O)NC(Cc1ccc(OCc2ccccc2)cc1)C(=O)NC(COCc1ccccc1)C(=O)Oc1c(Cl)c(Cl)c(Cl)c(Cl)c1Cl (stereo unspecified)
17.8 µM: HCT-15
inactive: U-251 18 µM | MCF7 22.4 µM | UACC-257 27.6 µM | SK-MEL-28 25.1 µM | OVCAR-8 21.5 µM | BT-549 20 µM | SF-295 19.2 µM | NCI/ADR-RES 21.2 µM | PC-3 19.5 µM | SK-MEL-2 19 µM | SF-539 15.5 µM | SNB-19 29.3 µM

C=CC[N+]12CN3CN(CN(C3)C1)C2
inactive: U-251 31.9 µM | MCF7 30.1 µM | UACC-257 24.5 µM | SK-MEL-28 21.3 µM | OVCAR-8 24 µM | BT-549 26.7 µM | SF-295 > 100 µM | NCI/ADR-RES 26.1 µM | PC-3 31.4 µM | SK-MEL-2 42.1 µM | SF-539 16.9 µM | SNB-19 40 µM
22.6 µM: HCT-15

O=c1[nH]nc(-c2ccccc2)n1/N=C/c1ccccc1Cl
inactive: U-251 38.5 µM | MCF7 31.8 µM | UACC-257 64 µM | SK-MEL-28 52 µM | OVCAR-8 39.1 µM | BT-549 37.1 µM | SF-295 34 µM | NCI/ADR-RES 19.8 µM | PC-3 15.1 µM | SK-MEL-2 18 µM | SF-539 39.3 µM | SNB-19 > 100 µM
31.6 µM: HCT-15

CCOC(=O)CC[C@H](NC(=O)c1nc[nH]c1/N=N/N(C)C)C(=O)OCC
> 100 µM: HCT-15
inactive: DLD-1 > 100 µM | U-251 > 100 µM | UACC-257 > 100 µM | SK-MEL-28 > 100 µM | DMS-273 > 100 µM | OVCAR-8 > 100 µM | SF-295 > 100 µM | XF498 15.3 µM | SK-MEL-2 > 100 µM | M19-MEL > 100 µM | SF-539 > 100 µM | SNB-19 > 100 µM | LXFL 529 > 100 µM

O=P1(O)c2ccccc2CS(=O)(=O)Cc2ccccc21
> 100 µM: HCT-15
inactive: U-251 > 100 µM | MCF7 > 100 µM | UACC-257 > 100 µM | SK-MEL-28 > 100 µM | OVCAR-8 > 100 µM | BT-549 > 100 µM | SF-295 > 100 µM | NCI/ADR-RES > 100 µM | PC-3 > 100 µM | SK-MEL-2 > 100 µM | SF-539 > 100 µM | SNB-19 > 100 µM

COc1ccc(C(C2C(=O)N(C)C(=O)N(C)C2=O)C(F)(F)C(=O)N(C)C)cc1 (stereo unspecified)
> 100 µM: HCT-15
inactive: U-251 > 100 µM | MCF7 > 100 µM | UACC-257 > 100 µM | SK-MEL-28 > 100 µM | OVCAR-8 > 100 µM | BT-549 > 100 µM | SF-295 > 100 µM | NCI/ADR-RES > 100 µM | PC-3 > 100 µM | SK-MEL-2 > 100 µM | SF-539 > 100 µM | SNB-19 > 100 µM

Cc1nc2n(c1/C=C1/C(=O)Nc3cccc(Cl)c31)CCS2
inactive: U-251 17 µM | MCF7 14.2 µM | UACC-257 > 100 µM | SK-MEL-28 > 100 µM | OVCAR-8 25.7 µM | BT-549 25.1 µM | SF-295 27.5 µM | NCI/ADR-RES 31.1 µM | PC-3 38 µM | SK-MEL-2 17.1 µM | SF-539 19 µM | SNB-19 27.2 µM
89.1 µM: HCT-15

COC(=O)Cc1c([C@H]2[C@H](CC(=O)OC)c3ccccc3N2C(=O)C(F)(F)F)[nH]c2ccccc12
8.18 µM: HCT-15
inactive: U-251 13.6 µM | MCF7 26 µM | UACC-257 29.1 µM | SK-MEL-28 34.5 µM | OVCAR-8 32.5 µM | BT-549 27.6 µM | SF-295 18.1 µM | NCI/ADR-RES 21.5 µM | PC-3 11.4 µM | SK-MEL-2 25 µM | SF-539 29.5 µM | SNB-19 54.3 µM

NC(=O)c1ccccc1NC(=O)C(=O)C(c1cnc2ccc([N+](=O)[O-])cc2n1)[N+](=O)[O-] (stereo unspecified)
inactive: U-251 > 100 µM | MCF7 62.1 µM | UACC-257 > 100 µM | SK-MEL-28 > 100 µM | OVCAR-8 > 100 µM | BT-549 > 100 µM | SF-295 > 100 µM | NCI/ADR-RES > 100 µM | PC-3 > 100 µM | SK-MEL-2 > 100 µM | SF-539 > 100 µM | SNB-19 79.1 µM
54.6 µM: HCT-15
